Source: patent US12472213B2, “Strains of Lactobacillus delbrueckii which inhibit Porphyromonas gingivalis” (Trustees of Tufts College, priority 2019, dated 2025)
Where two headings read alike, the source gives them in different places.

Tests used:
[1] = tested on: Lactobacillus delbrueckii STYM1 strain pyruvate oxidase (L. delbrueckii Pox, LDBND_1487), wild type, full-length; assay: Phospholipid activation assay of L. delbrueckii Pox; format: biochemical; conditions: various concentrations; 16:0-18:1 acyl chains
Description: (§1) Pyruvate oxidase enzyme or pyruvate:oxygen 2-oxidoreductase (phosphorylating) (EC 1.2.3.3) was derived from Lactobacillus delbrueckii STYM1 strain (16).
Pyruvate oxidase activity was measured as previously described (16). Briefly, 50 mM sodium pyruvate, 15 μM FAD, 300 μM TPP, 0.03% N-ethyl-N-(2-hydroxy-3-sulfopropyl)-m-toluidine (sigma), 0.015% 4-aminoantipyrine (sigma), and 33 μg/mL horseradish peroxidase (Sigma) were combined with purified pox enzyme. After a 10-minute incubation at room temperature, sodium phosphate pH 5.6 was added to 50 mM final concentration to initiate the reaction. The formation of a quinoneimine dye at 25° C. was measured by an increase in absorbance at 550 nm and the specific activity was calculated as described. 1 unit of Pox activity is defined as the production of 1 μmol of hydrogen peroxide per minute and this was converted to μM/min for kinetic analysis.
Phosphotidylethanolamine (16:0-18:1) (Avanti Lipids), Phosphotidylcholine (16:0-18:1) (Avanti Lipids), and Phosphotidylglycerol (16:0-18:1) (Avanti Lipids) dissolved in chloroform were evaporated under a steady stream of argon gas and dried in a vacuum desiccator for 1 hour to evaporate residual chloroform. The phospholipids were resuspended in 20 mM Bis-Tris 150 mM NaCl pH 6 and incubated at 37° C. with shaking at 225 rpm for 30 minutes. The suspension was vortexed for 30 seconds and vortexed immediately prior to each use.
(§2) Phospholipids were added to the pyruvate oxidase assay mixture at various concentrations and enzyme activity was measured as described above. Fold activity was calculated relative to enzyme activity without phospholipid.

[2] = tested on: Lactobacillus delbrueckii STYM1 pyruvate oxidase variant Δ32 (C-terminal truncation lacking the last 32 amino acids); assay: Phospholipid activation assay of L. delbrueckii Pox Δ32; format: biochemical; conditions: various PE concentrations
Description: The C-terminus of E. coli Pox is important for lipid activation of the enzyme (13). To test if the C-terminus was important in the L. delbrueckii Pox, a C-terminal truncation was generated that lacked the last 32 amino acids. The enzyme was purified and tested for its ability to be activated by PE (FIG. 18A). […] This is consistent with the E. coli pox truncation having greater activity partially mimicking lipid activation (20). Furthermore, the Δ32 enzyme was only weakly activated by PE to approximately 2-fold greater than the enzyme without PE compared to an approximately 6-fold activation with the full-length enzyme (FIG. 15B and FIG. 18C).
The PCR product was ligated into the pFLAG-CTC vector (Sigma, St. Louis, MO) using the NdeI and XhoI restriction sites. […] The construct was transformed into LOBSTR E. coli, in which the L. delbrueckii Δ32 Pox was expressed as a C-terminal His6-Pox. […] Protein purity was assessed by SDS-PAGE and Coomassie staining.
Pyruvate oxidase activity was measured as previously described (16). […] The formation of a quinoneimine dye at 25° C. was measured by an increase in absorbance at 550 nm and the specific activity was calculated as described. […]
as §2

[3] = tested on: Lactobacillus delbrueckii STYM1 strain pyruvate oxidase (L. delbrueckii Pox, LDBND_1487), wild type, C-terminal His6; assay: Pyruvate oxidase activity assay and kinetic parameters (oxidative coupling, H2O2 production, A550); format: biochemical; conditions: for Km: 25° C.
Description: The C-terminal primer encoded a glycine-serine linker followed by a 6-histidine tag and a stop codon. The PCR product was ligated into the pFLAG-CTC vector (Sigma) using the NdeI and XhoI restriction sites and transformed into DH5α E. coli resulting in the plasmid pFLAG-CTC_Pox. The construct was confirmed by PCR and sequencing. pFLAG-CTC_Pox was transformed into LOBSTR E. coli in which Pox was expressed as a C-terminal His6-Pox. A 6 mL starter culture was incubate at 37° C. overnight in LB supplemented with 100 μg/mL of ampicillin. The starter culture was diluted 1:100 into 40 mL of LB supplemented with 100 μg/mL of ampicillin and grown at 37° C. until the OD600 reached 0.4-0.8. The temperature was then shifted to 26° C. and the cells were incubated with 1 mM isopropyl-β-D-thiogalactopyranoside (IPTG) for 20 hours. The cells were harvested by centrifugation at 3,200×g for 10 minutes, resuspended in 1 mL PBS EDTA-free cOmplete protease inhibitor cocktail (Roche), and lysed by sonication on ice, as described above. […] Protein purity was assessed by SDS-PAGE and Coomassie staining.
Pyruvate oxidase activity of recombinant Pox was assessed by an oxidative coupling reaction. […] Immediately upon addition of purified Pox, the formation of a quinoneimine dye was measured by an increase in the absorbance at 550 nm which was recorded every 30 seconds at room temperature. […] Pox activity is assessed by determining the change in absorbance at 550 nm per minute. […] Activity was determined according to the following equation: specific activity=[(ΔA550/min)(dilution factor)(total reaction volume)]/[(36.88)(0.5)(path length)(sample volume)(C)], where the total reaction volume is 1 ml, the millimolar extinction coefficient of quinoneimine dye is 36.88, the factor of 0.5 was determined based on the fact that 1 mol of hydrogen peroxide produces 0.5 mol of quinoneimine dye, the light path length is 1 cm, the sample volume is 0.1 ml, and C is the concentration of undiluted enzyme in mg/ml. […]
Pyruvate oxidase activity was measured as previously described (16). […]

[4] = tested on: Lactobacillus delbrueckii STYM1 strain pyruvate oxidase (L. delbrueckii Pox, LDBND_1487), wild type; assay: PE co-sedimentation; format: binding; conditions: 1 mM PE, 50 mM pyruvate, 300 μM TPP, 15 μM FAD, 30 minutes at room temperature
Description: as §1
PE was prepared as described above for activation experiments. 3 μg of L. delbrueckii Pox was incubated with 50 mM pyruvate, 300 μM TPP, and 15 μM FAD with either 1 mM PE or no PE for 30 minutes at room temperature. The PE fraction was precipitated by centrifugation at 16,000×g for 20 minutes at 4° C. The supernatant was aspirated as the soluble fraction and the PE pellet was resuspened in an equal amount of buffer. The fractions were visualized by Coomassie staining after SDS-PAGE.

CCCCCCCC/C=C\CCCCCCCC(=O)O[C@H](COC(=O)CCCCCCCCCCCCCCC)COP(=O)([O-])OCC[N+](C)(C)C [PC, Phosphotidylcholine (16:0-18:1)]
catalytic activation by phospholipid (in words) [1]: not PC or PG

CCCCCCCC/C=C\CCCCCCCC(=O)O[C@H](COC(=O)CCCCCCCCCCCCCCC)COP(=O)(O)OCCN [PE, Phosphotidylethanolamine (16:0-18:1)]
fold activity relative to the enzyme without PE [2]: approximately 2 fold | increase in kcat relative to the enzyme in the absence of PE ([3]; 7.2 mM PE vs no PE): approximately 18 fold | catalytic activation by phospholipid (in words) [1]: catalytically activated specifically by PE | co-precipitation with PE [4]: did not co-precipitate with PE

CCCCCCCC/C=C\CCCCCCCC(=O)O[C@H](COC(=O)CCCCCCCCCCCCCCC)COP(=O)(O)OCC(O)CO (some centres unmarked) [PG, Phosphotidylglycerol (16:0-18:1)]
catalytic activation by phospholipid (in words) [1]: not PC or PG

phosphate
Km ([3]; with 7.2 mM PE, 170 nM enzyme, read-out: km for phosphate (with PE)): 1.25 mM | Km ([3]; without PE, 1.76 μM enzyme, pyruvate 50 mM, pH 5.6, read-out: km for phosphate): 8 mM
